Results on one substance are retold here after publication PMC3425544, “The S100A10 Subunit of the Annexin A2 Heterotetramer Facilitates L2-Mediated Human Papillomavirus Infection” (PLoS ONE, 2012).

In experiment [1] the test system is S100A10 subunit of A2t. The experiment is described as follows: EPR binding of L2 peptide to S100A10. Here is the method: (§1) Recombinant annexin A2 was expressed in BL21(DE3) Escherichia coli cells and purified using reversible Ca^2+-dependent binding to negatively charged phospholipid vesicles followed by size exclusion chromatography. A pET23A vector containing the S100A10 sequence (a gift from Volker Gerke) was expressed in BL21(DE3) cells as previously described. Both proteins were stored at 4°C in 20 mM HEPES buffer at pH 7.4, containing 100 mM NaCl with the addition of 1 mM dithiothreitol. Concentrations of all proteins and peptides, including the A2t complex, were determined using bicinchoninic acid assays (Pierce Thermo Scientific, Rockford, IL) compared to measured absorbance of albumin standards at 562 nm. Purified annexin A2 and S100A10 were combined at a molar ratio of 1∶1 and concentrated to over 8 µg/µl. The mixture was incubated overnight at 4°C, and then loaded onto a superdex 200 10/300 GL (GE Healthcare USA) column equilibrated in the previously mentioned HEPES buffer. The eluted A2t peak was collected and subjected to peptide binding assays.
(§2) The L2_108–126 peptides used in our EPR studies were synthesized with a cysteine at the N-terminus, and followed by a spacer of 3 physiological amino acids (C-IVS) preceding the canonical L2_108–126 and L2 scrambled sequences (C-IVS-[…] and C-IVS-[…] respectively). Peptides were combined with 8× molar excess paramagnetic label (1-oxyl-2, 2, 5, 5-tetramethyl-Δ3-pyrroline-3-methyl) (R1) methanethiosulfonate (MTSL), (Toronto Research Chemicals, Canada) and left to react overnight at 4°C. Free label was removed by gel filtration (PD10 GE, United Kingdom). All peptides were solubilized into HEPES buffer. For competition assays, the scrambled peptide was non-paramagnetic labeled with an N-acetylated MTSL paramagnetic-label analog (1-acetyl-2,2,5,5- tetramethyl-Δ3-pyrroline-3-methyl) (R1′) at an 8× molar excess to emulate the paramagnetic label on control peptides. Binding interactions were examined by combining paramagnetically-labeled L2 peptide with A2t, BSA, ANXA2, or S100A10 (20 µM, 100 µM, 100 µM, 100 µM, and 100 µM respectively) in 10 µL volumes of the HEPES buffer, confined by glass capillaries, and measured at room temperature over a period of 24 hours using a Bruker EMX X-band EPR spectrometer. For the cysteine blocked S100A10, S100A10 was treated with R1′ and excess label was removed via gel filtration (see above) before the addition of paramagnetic labeled peptides. The experiments were done in triplicate with measurements taken at 12 db, in 5 scan intervals. All spectra were normalized to the same number of scans. To quantify the amount of bound peptide spectra of all tested proteins in combination with the L2_108–126 or ScrL2 peptides were compared to the spectra of L2_108–126 or ScrL2 peptides alone in solution using a spectra analyzing software (EPR 130, University of California, Los Angeles). By subtracting the alone peptide spectra from that of the combined samples we derive the spectra of the bound spectra, and based on double integration, relate this spectra to a concentration of the peptide that bound to the target protein.

The subject of experiment [2] is HepG2 cell line. The settings on record: ref [28]; cited from earlier work. An excerpt: Nonetheless, the link between HSV and H ...
For experiment [3], the system named is A2t (annexin A2 heterotetramer). Briefly: EPR binding of L2 peptide to A2t. Further details: species or system human. The settings on record: mean of three separate experiments. From the text: Next, we wanted to determine if there was a specific interaction between the L2_108–126 peptide and A2t using electron paramagnetic resonance (EPR) spectroscopy. EPR is a method of magnetic resonance spectroscopy measuring unpaired electrons whose underlying basic concepts are not unlike the more widely used technique of nuclear magnetic resonance (NMR) (reviewed in [43]). When coupled with site-directed paramagnetic-labeling, such as the attachment of a moiety with an unpaired electron to a cysteine residue, EPR can be used to obtain structural information within a small vicinity of the paramagnetic-label’s positions along the protein sequence. As a paramagnetic-label becomes locally constrained, such as when bound to another protein, its spectra will drastically change as visualized by a decrease in line amplitude and increased line-broadening. Therefore, EPR provides an in vitro biochemical method that measures protein-protein interactions by monitoring changes in the spectra recorded for a labeled protein in different experimental settings.
For our purposes, an N-terminal cysteine (with a 3 native aa spacer) contained in the L2_108–126 peptide (C-IVS-[…]) was paramagnetic-labeled (an unpaired-electron-containing small molecule was cross-linked via a disulfide bond to the peptide), and its spectra were analyzed after incubation with and without purified human recombinant A2t or controls. […]
Recombinant annexin A2 was expressed in BL21(DE3) Escherichia coli cells and purified using reversible Ca^2+-dependent binding to negatively charged phospholipid vesicles followed by size exclusion chromatography. […] Concentrations of all proteins and peptides, including the A2t complex, were determined using bicinchoninic acid assays (Pierce Thermo Scientific, Rockford, IL) compared to measured absorbance of albumin standards at 562 nm. […]

The subject of experiment [4] is surface of HeLa, SiHa and CaSki cells. The settings on record: ref [28], cited from earlier work.
Experiment [5] concerns annexin A2. Briefly: EPR binding of L2 peptide to annexin A2. Here is the method: as §1
as §2, with “The experiments were done in triplicate with measurements taken at 12 db, in 5 scan intervals. All spectra were normalized to the same number of scans.” left out, “By subtracting the alone peptide spectra from that of the combined samples we derive the spectra of the bound spectra, and based on double integration, relate this spectra to a concentration of the peptide that bound to the target protein.” left out

For “C-IVS-LVEETSFIDAGAPTSVPSI [L2_108–126, HPV16 L2 aa 108–126 peptide with N-terminal cysteine and IVS spacer]”, in experiment [1] (EPR, discussion), the “interaction with S100A10 subunit” value is “very strong interaction”. The “relative % bound to S100A10” value in experiment [1] (EPR, 20 µM peptide, 100 µM S100A10, mean of three separate experiments) turned out to be 92.5%. Besides, the “relative % bound to cysteine-blocked S100A10” value in experiment [1] (EPR, S100A10 cysteine-blocked with R1′ (αCys-S100A10), paramagnetic-labeled peptide, mean of three separate experiments) is 73.1%. In experiment [1] (EPR, scrambled peptide 5∶1, mean of three separate experiments), the “relative % bound to S100A10 in presence of ScrL2” value is given as 91.0%. In experiment [1] (from EPR percent bound, association constant), the “relative binding constant (K), S100A10” value turned out to be 150000 M⁻¹. In experiment [2], the “binding to A2t-deficient HepG2 cells vs cervical cancer cell lines” value is on record as “bind significantly less”. Moreover, the “relative % bound to A2t” value in experiment [3] (20 µM paramagnetic-labeled (MTSL) L2 peptide, 100 µM A2t, HEPES pH 7.4, room temperature) is reported as 78.0%. Also, the “relative % bound to A2t in presence of ScrL2” value in experiment [3] (non-paramagnetic-labeled ScrL2 to WT L2_108–126 5∶1 molar ratio) was 75.8%. For the same substance, the “binding to cell lines” value in experiment [4] (SiHa, CaSki, [29] (b5), [23], [28]) is reported as “can bind to the surface of several human cell lines”. For the same substance, the “binding to HeLa cells with substitutions at aa 108–111” value in experiment [4] (aa 108–111 substituted (LVEE to GGDD)) is given as “decrease the binding”. Besides, in experiment [5] (20 µM peptide, 100 µM ANXA2, mean of three separate experiments), the “relative % bound to annexin A2” value is reported as 23.6%. In addition, in experiment [5] (discussion), the “interaction with annexin A2 subunit” value is given as “minimal interaction”. In addition, the “relative % bound to annexin A2 in presence of ScrL2” value in experiment [5] (scrambled peptide 5∶1, mean of three separate experiments) came to 17.7%.
